Assay results published in patent US8901129B2, “Methods of facilitating neural cell survival using GDNF family ligand (GFL) mimetics or RET signaling pathway activators” (GeneCode AS, priority 2009, dated 2014).

How the values were obtained:
[1] = system: GFRα1/RET-expressing cells; experiment: Reporter-gene luciferase activity assay, dose-response (FIG. 5); assay type: cell-based; conditions: 1-50 μM, 24 h
Protocol: (§1) Generation of stable cell lines. MG87RET murine fibroblast were plated on […] dishes and transfected with 4 μg of G4-Luc, Gal4-Elk (Baloh et al., 2000) and GFRα1 expressing plasmid (“αLUC” cells) or empty vector (“NOα” cells) containing neomycin-resistance gene in ratio 4:1:1 using Lipofectamine 2000 (Invitrogen) for DNA delivery as described by manufacturer. The following day, cells were trypsinized and plated in low density on 10-cm tissue culture dishes. Stable transformants were selected in the presence of 500-750 μg/ml geneticin (Invitrogen). Established cell lines were maintained in DMEM, 10% fetal bovine serum (FBS), 100 μg/ml Normocin (Invivogene), 2 μg/ml of puromycin, 500 μg/ml of geneticin, 15 mM HEPES, pH 7.2. Pathdetect Elk-1 system and human GFRα1-expressing plasmid (“Strat-Luc” cells) or empty vector (control cell line “NOStratis”) cells were selected and maintained in the DMEM, 10% FBS, 100 μg/ml Normocin (Invivogene), 2 μg/ml of puromycin, 500 μg/ml of G418, 2 μg/ml of blasticidin S, 15 mM HEPES, pH 7.2.
(§2) Cells were plated on 96-well plates (or 384-well) in cell density 20 000 (or 5 000 for 384-well format) cells per well in DMEM, 10% FBS, 100 μg/ml Normocin, 2 μg/ml puromycin, 500 μg/ml of G418, 15 mM HEPES, pH 7.2 one day before assay. The following day, the compounds were added to a final concentration of 1-50 μM. Structures of the compounds are shown in the description of FIG. 5, above. Cells were allowed to produce luciferase for 24 h, then lysed in 20 μl of 1×Cell culture lysis reagent (Promega) and freeze-thawed once to ensure complete lysis. Then 5 μl of the lysate was mixed (on ice) with 20 μl of luciferase assay substrate (Promega) in a well of black Isoplate (PerkinElmer). Luminescence was counted on MicroBeta 2 counter (PerkinElmer) twice. Data are presented as fold induction, where the corresponding concentration of DMSO was used as a reference.

[2] = system: RET-expressing reporter cell line (RET alone); experiment: as above; assay type: cell-based; conditions: cells expressing RET alone; 1-50 μM, 24 h
Protocol: as §1, §2

[3] = system: GFRα3/RET-expressing reporter cell line; experiment: as above; assay type: cell-based, human; conditions: GFRα3/RET cells; 1-50 μM, 24 h
Source text: Full-length flag-tagged rat Gfrα1 cDNA (Leppänen et al., 2004) subcloned into in pcDNA3 (Invitrogen). Full-length human GFRα1 cDNA (Sidorova et al., unpublished) subcloned in pcDNA6 (Invitrogen). Full-length human GFRα3 cDNA (Wang et al., 2006). Full-length human RET (long isoform) (Runeberg-Roos et al., 2007) in pCR3.1 (Invitrogen). The MAPK activation detection system (Baloh et al., 2000) and PathDetect Elk-1 (Stratagene) both of which include two plasmids. First one constitutively expresses MAPK pathway specific fusion transactivator, that consists of activation domain of Elk-1 and DNA-binding domain of the yeast GAL4 protein (Gal4-Elk1). The other plasmid, Gal4-Luc, carries luciferase gene under the control of a synthetic promoter containing the yeast GAL4 binding sequences.
as §2

GFRα1/RET = target: T1, GFRα1/RET (Homo sapiens, UniProt P07949+P56159); experiment: RET phosphorylation by BT compounds, IP and Western blotting (FIG. 6A); assay type: cell-based; conditions: 100 μM, 15 min; MG87 RET fibroblasts transfected with GFRα1
T1 construct: Full-length human GFRα1 cDNA (Sidorova et al., unpublished) subcloned in pcDNA6; expressed in transfected cells; host or cells: MG87RET murine fibroblasts transiently transfected with GFRα1
T1 sequence (P56159 25-429 limits assumed, species assumed): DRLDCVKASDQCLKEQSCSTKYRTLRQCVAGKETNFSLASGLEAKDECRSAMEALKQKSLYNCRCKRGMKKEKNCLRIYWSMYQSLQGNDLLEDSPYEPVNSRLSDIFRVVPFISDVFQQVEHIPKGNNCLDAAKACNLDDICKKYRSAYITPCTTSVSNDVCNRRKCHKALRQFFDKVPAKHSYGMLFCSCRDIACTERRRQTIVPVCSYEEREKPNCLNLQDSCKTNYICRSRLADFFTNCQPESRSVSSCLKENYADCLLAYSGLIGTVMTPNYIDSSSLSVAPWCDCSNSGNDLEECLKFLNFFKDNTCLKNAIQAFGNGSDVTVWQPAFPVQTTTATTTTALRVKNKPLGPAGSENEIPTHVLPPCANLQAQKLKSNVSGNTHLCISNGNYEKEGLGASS
T1 sequence (P07949 29-1114, species assumed): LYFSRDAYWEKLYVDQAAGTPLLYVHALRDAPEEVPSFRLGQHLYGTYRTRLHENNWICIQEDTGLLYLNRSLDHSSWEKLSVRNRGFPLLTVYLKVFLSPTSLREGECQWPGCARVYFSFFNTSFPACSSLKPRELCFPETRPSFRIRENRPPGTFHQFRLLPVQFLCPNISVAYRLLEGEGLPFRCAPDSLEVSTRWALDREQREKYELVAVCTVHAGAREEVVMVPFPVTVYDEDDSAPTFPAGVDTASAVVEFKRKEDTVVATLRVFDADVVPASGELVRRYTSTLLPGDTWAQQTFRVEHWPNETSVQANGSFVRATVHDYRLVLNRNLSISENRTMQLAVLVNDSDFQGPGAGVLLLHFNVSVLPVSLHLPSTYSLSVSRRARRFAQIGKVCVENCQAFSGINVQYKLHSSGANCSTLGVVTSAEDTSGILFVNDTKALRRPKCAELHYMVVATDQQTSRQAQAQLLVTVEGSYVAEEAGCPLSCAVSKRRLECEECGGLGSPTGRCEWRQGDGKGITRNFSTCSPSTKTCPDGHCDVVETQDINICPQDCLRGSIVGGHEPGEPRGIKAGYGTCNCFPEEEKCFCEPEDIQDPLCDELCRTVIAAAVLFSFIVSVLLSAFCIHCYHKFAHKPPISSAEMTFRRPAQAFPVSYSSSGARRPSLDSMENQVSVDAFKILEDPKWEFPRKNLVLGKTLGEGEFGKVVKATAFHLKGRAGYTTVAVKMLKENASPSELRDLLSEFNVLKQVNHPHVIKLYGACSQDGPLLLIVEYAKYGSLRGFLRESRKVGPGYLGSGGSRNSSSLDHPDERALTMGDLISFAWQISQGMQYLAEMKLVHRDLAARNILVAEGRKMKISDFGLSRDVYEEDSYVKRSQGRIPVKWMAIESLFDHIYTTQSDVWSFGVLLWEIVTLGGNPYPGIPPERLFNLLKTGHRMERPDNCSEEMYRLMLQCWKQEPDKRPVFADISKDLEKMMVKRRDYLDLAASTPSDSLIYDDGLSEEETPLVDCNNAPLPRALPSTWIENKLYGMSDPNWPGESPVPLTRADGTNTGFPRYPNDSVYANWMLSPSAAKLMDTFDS
Protocol: (§3) MG87RET cells were plated on 35 mm tissue culture dishes the day before the experiment. Cells were transfected with GFRα1, GFRα3 or with an vector encoding for GFP. On the day of the experiment cells were starved for 4 hours in serum-free DMEM and stimulated with the investigated compounds (structures shown in the description of FIG. 6, above) at 100 μM concentration or with 100 ng/ml of GDNF or ARTN (positive control) for 15 min. Then cells were washed once with ice-cold PBS containing 1 mM Na3VO4 and lysed on ice in 1 ml per well of RIPA-modified buffer (50 mM Tris-HCl, pH 7.4, 150 mM NaCl, 1 mM EDTA, 1% NP-40, 1% TX-100, 10% glycerol, EDTA-free protease inhibitor cocktail (Roche), 1 mM Na3VO4, 2.5 mg/ml of sodium deoxycholate, 1 mM PMSF. Ret was immunoprecipitated by anti-RET C-20 antibodies (Santa-Cruz Biotechnology, Inc.). Precipitated proteins were resolved on 7.5% SDS-PAGE and then transferred onto a nitrocellulose membrane. Membrane was blocked for 15 min at room temperature by 10% nonfat dry milk in TBS-T and probed with anti-phosphotyrosine antibodies (clone 4G10, Upstate Biotechnology) diluted 1:1000 in TBS-T containing 3% nonfat dry milk for 2 hours at room temperature. The membranes were washed 3 times for 5 min in TBS-T and incubated in the 1:3000 solution of secondary anti-mouse antibodies conjugated with HRP (DAKO) diluted in TBS-T containing 3% nonfat dry milk for 45 min at room temperature. Membranes were washed with TBS-T for 5×10 min. Stained bands were visualized with ECL reagent (Pierce) using LAS3000 imaging program. To confirm equal loading of the proteins, membranes were probed with anti-RET C-20 antibodies (1:500, Santa-Cruz Biotechnology, inc.) after stripping. We used secondary anti-goat antibodies conjugated with HRP (1:1500, DAKO) to detect C-20.

GFRα3/RET = target: T2, GFRα3/RET (Homo sapiens, UniProt O60609+P07949); experiment: RET phosphorylation by BT compounds, IP and Western blotting (FIG. 6B); assay type: cell-based; conditions: 100 μM, 15 min; MG87 RET fibroblasts transfected with GFRα3
T2 construct: Full-length human GFRα3 cDNA (Wang et al., 2006); expressed in transfected cells; host or cells: MG87RET murine fibroblasts transiently transfected with GFRα3
T2 sequence (O60609 32-374 limits assumed): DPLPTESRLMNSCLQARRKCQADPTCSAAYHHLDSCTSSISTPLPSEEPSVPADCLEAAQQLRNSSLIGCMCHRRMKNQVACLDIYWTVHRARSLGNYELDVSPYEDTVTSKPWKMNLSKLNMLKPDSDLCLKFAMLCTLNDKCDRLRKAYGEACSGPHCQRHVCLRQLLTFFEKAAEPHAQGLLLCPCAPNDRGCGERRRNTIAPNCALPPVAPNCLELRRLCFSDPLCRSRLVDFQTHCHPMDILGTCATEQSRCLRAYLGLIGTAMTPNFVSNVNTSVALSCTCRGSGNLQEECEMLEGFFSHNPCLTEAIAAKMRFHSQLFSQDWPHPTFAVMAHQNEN
T2 sequence (P07949 29-1114): as the sequence (P07949 29-1114, species assumed) above
Protocol: as §3

[4] = system: MG87RET murine fibroblasts; experiment: Cell viability, CelTiterGlo (FIG. 8); assay type: cell-based; conditions: concentrations above 2 μM, 48 hours
Protocol: The test compounds were transferred into in 384-well culture plate using Echo acoustic dispenser (Labcyte Inc.) in 2.5-125 nl volume. Trypsinized MG87RET murine fibroblasts were seeded at 20 000 cells/ml (500 cells/well) in the presence of each compound dissolved in DMSO at the indicated concentration. After brief mixing on a horizontal shaker, the plates were centrifuged and transferred into the incubator. Two days (48 hours) after addition of cells to compounds, the viability of the cells was evaluated using CelTiterGlo reagent (Promega).

RET phosphorylation via GFRα1 (GFRα1/RET) | RET phosphorylation via GFRα3 (GFRα3/RET) | SMILES | induction of luciferase expression [1] | induction of luciferase expression [2] | induction of luciferase expression [3] | toxicity (cell viability) [4]
likely the weaker GFRα1/RET agonists | likely the weaker GFRα3/RET agonists | COc1ccc(S(=O)(=O)N2CCC(Cc3ccccc3)CC2)cc1N1CCN(C(=O)c2cc(F)ccc2C(F)(F)F)CC1 [BT17] | in a dose-dependent manner induce luciferase expression | No significant effect | in a dose-dependent manner induce luciferase expression | 
 |  | CCN(CC)CCCC(C)Nc1cc(/C=C/c2ccccc2Cl)nc2cc(Cl)ccc12 (stereo not drawn) [BT10] |  |  |  | significant toxicity
